Experimental data: ChEMBL document CHEMBL4052619, “First example of peptides targeting the dimer interface of Leishmania infantum trypanothione reductase with potent in vitro antileishmanial activity” (Eur J Med Chem, 2017)
The source made the active and inactive calls. No cut-off for these calls is given here. Bridge positions count the residues as written; N and C are the ends. Square brackets hold non-standard residues; d marks the D form. Peptide text beside a SMILES is read from it. ξ: configuration not given here. ξNle = CCCCC(N)C(=O)O

How the values were obtained:
Leishmania infantum [1] = test: Drug localization in Leishmania infantum MCAN/ES/89/IPZ229/1/89 promastigotes flagellum after 4 hrs by fluorescence microscopic method; format: ADME; conditions: in vivo
Leishmania infantum [2] = test: Drug localization in Leishmania infantum MCAN/ES/89/IPZ229/1/89 promastigotes after 24 hrs by fluorescence microscopic method; format: ADME; conditions: in vivo
Trypanothione reductase [3] = target: T1, Trypanothione reductase (Leishmania infantum, UniProt A4HSF7); test: Inhibition of recombinant Leishmania infantum TryR preincubated for 10 mins followed by T[S]2 substrate addition and measured after 1 hr in presence of NADPH
T1 sequence (A4HSF7 whole entry): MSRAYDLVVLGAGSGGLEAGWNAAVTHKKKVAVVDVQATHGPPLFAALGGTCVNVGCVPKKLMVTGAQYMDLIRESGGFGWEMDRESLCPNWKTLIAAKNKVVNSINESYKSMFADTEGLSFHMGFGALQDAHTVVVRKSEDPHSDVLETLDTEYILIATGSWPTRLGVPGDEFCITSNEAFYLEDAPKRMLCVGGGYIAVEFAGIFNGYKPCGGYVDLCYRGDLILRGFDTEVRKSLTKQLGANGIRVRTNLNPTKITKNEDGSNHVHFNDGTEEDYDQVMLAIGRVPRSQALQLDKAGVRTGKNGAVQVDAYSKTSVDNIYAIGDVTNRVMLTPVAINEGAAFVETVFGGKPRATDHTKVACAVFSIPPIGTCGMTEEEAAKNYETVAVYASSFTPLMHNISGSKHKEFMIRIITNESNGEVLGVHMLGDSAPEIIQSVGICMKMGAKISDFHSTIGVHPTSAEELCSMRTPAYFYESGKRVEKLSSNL

Leishmania infantum [4] = test: Antileishmanial activity against Leishmania infantum MCAN/ES/89/IPZ229/1/89 promastigotes assessed as induction of cell death at 25 uM after 24 hrs by propidium iodide staining based flow cytometry; format: functional
[5] = Stability assessed as Tritirachium album proteinase K- mediated compound degradation by measuring half life at 100 uM by HPLC method; format: ADME; conditions: parengyodontium album
Leishmania infantum [6] = test: Antileishmanial activity against Leishmania infantum axenic amastigotes assessed as induction of cell death at 25 uM after 24 hrs by propidium iodide staining based flow cytometry; format: functional
Trypanothione reductase [7] = target: T1, Trypanothione reductase; test: Inhibition of recombinant His/FLAG-tagged Leishmania infantum TryR dimerization assessed as dimer disruption after 1 hr by ELISA

Drug uptake (Leishmania infantum [1])	Drug uptake (Leishmania infantum [2])	SMILES	IC50 (Trypanothione reductase [3])	Activity (Leishmania infantum [4])	half-life at 100 µM [5]	Activity (Leishmania infantum [6])	IC50 (Trypanothione reductase [7])
Active	Active	CCCCC(NC(=O)[C@H](CCCCN)NC(=O)C(CCCC)NC(=O)[C@H](CO)NC(=O)[C@@H](NC(=O)CNC(=O)[C@@H](NC(=O)[C@H](CO)NC(=O)[C@H](CCC(N)=O)NC(=O)[C@@H](NC(=O)[C@@H](NC(=O)[C@H](CCCCN)NC(=O)[C@@H]1CCCN1C(=O)COCCOCCNC(=S)Nc1ccc(-c2c3ccc(=O)cc-3oc3cc(O)ccc23)c(C(=O)O)c1)[C@@H](C)CC)[C@@H](C)CC)C(C)C)[C@@H](C)CC)C(=O)N[C@H](CCCNC(=N)N)NC(=O)[C@H](CCCNC(=N)N)NC(=O)[C@H](CCCNC(=N)N)NC(=O)[C@H](CCCNC(=N)N)NC(=O)[C@H](CCCNC(=N)N)NC(=O)[C@H](CCCNC(=N)N)NC(=O)[C@H](CCCNC(=N)N)NC(=O)[C@H](CCCNC(=N)N)NC(=O)[C@@H](N)CCCNC(=N)N (stereo partly specified)	–	–	–	–	–
–	–	CCCCC(NC(=O)[C@H](CCCCN)NC(=O)C(CCCC)NC(=O)[C@H](CO)NC(=O)[C@@H](NC(=O)CNC(=O)[C@@H](NC(=O)[C@H](CO)NC(=O)[C@H](CCC(N)=O)NC(=O)[C@@H](NC(=O)[C@@H](NC(=O)[C@H](CCCCN)NC(=O)[C@@H]1CCCN1C(C)=O)[C@@H](C)CC)[C@@H](C)CC)C(C)C)[C@@H](C)CC)C(N)=O (stereo partly specified)	1.2 µM	inactive	23 min	inactive	13.5 µM
–	–	CCCCC(NC(=O)[C@H](CCCCN)NC(=O)C(CCCC)NC(=O)[C@H](CO)NC(=O)[C@@H](NC(=O)CNC(=O)[C@@H]1CCCCNC(=O)CC[C@H](NC(=O)[C@H](CCCCN)NC(=O)[C@@H]2CCCN2C(C)=O)C(=O)N[C@@H]([C@@H](C)CC)C(=O)N[C@@H](CCC(N)=O)C(=O)N[C@@H](CO)C(=O)N1)[C@@H](C)CC)C(N)=O (stereo partly specified) (Ac-PKEIQSKGIS[ξNle]K[ξNle]-NH2; lactam 3-7)	0.9 µM	inactive	52 min	inactive	9.9 µM
–	–	CCCCC(NC(=O)[C@H](CCCCN)NC(=O)C(CCCC)NC(=O)[C@H](CO)NC(=O)[C@@H](NC(=O)[C@@H]1CCCCNC(=O)CC[C@H](NC(=O)[C@@H](NC(=O)[C@H](CCCCN)NC(=O)[C@@H]2CCCN2C(C)=O)[C@@H](C)CC)C(=O)N[C@@H](CCC(N)=O)C(=O)NC(CO)C(=O)N[C@@H](C(C)C)C(=O)N1)[C@@H](C)CC)C(N)=O (single isomer, unassigned)	5.3 µM	inactive	64 min	inactive	14.4 µM
–	–	CC[C@H](C)[C@H](NC(=O)[C@@H]1CCCCNC(=O)CC[C@H](NC(=O)[C@@H](NC(=O)[C@H](CCCCN)NC(=O)[C@@H]2CCCN2C(C)=O)[C@@H](C)CC)C(=O)N[C@@H](CCC(N)=O)C(=O)NC(CO)C(=O)N[C@@H](C(C)C)C(=O)N1)C(N)=O (single isomer, unassigned)	> 75 µM	inactive	–	inactive	> 75 µM
